Assay results published in US20150315218A1, “SALTS OF PRODRUGS OF PIPERAZINE AND SUBSTITUTED PIPERIDINE ANTIVIRAL AGENTS” (Bristol-Myers Squibb Company, priority 2004, published 2015).
Where a name gives a salt, the structure may show the parent alone. Read-outs that look alike come from different tables or passages of the source.

Key:
[1] = Single dose study of Compound IVa in healthy human volunteers (capsule/solution, fasted/fed; first-in-human); assay type: in vivo; conditions: for AUCtotal / Cmax: n = 6
Protocol: The parent compound IVa has been studied in human clinical trials. The compound was dosed in healthy human volunteers.
It is also readily apparent from the oral AUCs, that increases in drug exposure increased much more slowly and less than proportionally with dose. […] Between 200-800 mg dose range the increases in systemic exposure is dose-related although less than dose-proportional, while such exposure is dose independent above dose of 800 mg.
Dosing with a solution increased Compound IVa exposure.
The AUCs after a fed treatment were approximately 2.5 and 4.7 fold for 800 and 1800 mg doses, respectively, of those of the fasted treatment.
For the 800 mg capsule with food, the average plasma concentration is 1001 and 218 ng/mL at 8 and 12 hours post dose, respectively. The results supported a ql2 h or q8 h dosing regimen for a targeted Cmin value of at least 200 ng/mL after multiple doses. This value was selected based on preclinical data.

[2] = MAP studies G and H: PO dosing of diester IIa and monoester II′a in rats; assay type: in vivo, rat; conditions: 5 mg/kg; for AUC / Cmax / Tmax / bioavailability / half-life: male, Sprague-Dawley, rat, plasma, po; for half-life: read-out: T½ p.o. (converted)
Protocol: Compound IVa was administered in a polyethylene glycol 400 (PEG400)/ethanol (EtOH) solution (90/10, v/v) unless noted otherwise. Plasma and tissue samples were collected and stored at −20° C. until analysis. Male Sprague-Dawley rats (300-350 g, Hilltop Lab Animals, Inc., Scottdale, Pa. 15683) with cannulas implanted in the jugular vein and/or bile duct were used in the pharmacokinetic studies of compound IVa. Rats were fasted overnight in PO studies. Blood samples (0.3 mL) were collected from the jugular vein in EDTA-containing microtainer tubes (Becton Dickinson, Franklin Lakes, N.J. 07147) to obtain plasma. […] In the PO studies, rats (n=3) received PO doses of 5 and 100 mg/kg.
The procedure for the oral dosing leg of MAP study A1 was followed except that diester IIa was utilized in place of Compound IVa. […] The data is described in Table 10 below:
The procedure for the oral dosing leg of MAP study A1 was followed except that monoester II′a was utilized in place of Compound IVa. […]

[3] = 2-week oral dose rat toxicology / TK study F; assay type: in vivo; conditions: rat, plasma, historical; for AUC(0-t): read-out: Mean AUC0-24 hr
Protocol: In the 2-week oral rat study F (n=six/sex/group), Compound IVe was administered at daily doses of 15, 75, or 200 mg/kg. […] On Day 14, AUC0-24 h values were slightly higher in females (≦644 μg*hr/ml) compared to males (526.88 μg*hr/ml) at dosages 200 mg/kg/day. The oral (PO) results from Study F are in Table 5.

[4] = 2-week rat toxicity study (5, 50 or 500 mg/kg BID); assay type: in vivo; conditions: 2 weeks, in-life phase completed
Protocol: A 2-week rat toxicity study using dosages of 5, 50, or 500 mg/kg BID to support the IND is ongoing (3).

[5] = Capsule formulation studies of IVa (clinical form, spray dried form) vs Iab in fasted dogs; assay type: in vivo, dog; conditions: capsules, 20 mg/kg of IVa equivalent
Protocol: Additional formulation studies of IVa were conducted in fasted dogs (n=2 per dose group). The dogs were administered either the clinical form or the spray dried form of IVa in capsules. The clinical capsule form of IVa was administered at a single dose of 20 mg/kg. The spray dried form of IVa was administered at 20, 75 and 200 mg/kg.

pKa = assay type: physicochemical; conditions: read-out: pKa (potentiometric)
[6] = pH 7.5
Protocol: The stability of Iab was also evaluated, as described above, in Tris-HCl buffer (0.1 M, pH 7.5). The stability of Ibb was also evaluated, as described above, in Tris-HCl buffer (0.1 M, pH 7.5). The stability of Icb was also evaluated, as described above, in Tris-HCl buffer (0.1 M, pH 7.5).

[7] = 1800 mg capsule, high fat meal vs fasted
[8] = fed (high fat meal), dose ratio 1:2.3 (800 mg vs. 1800 mg)
[9] = IVa following PO dosing of diester IIa
[10] = IVa following PO dosing of monoester II′a

## COc1ncc(OC)c2c(C(=O)C(=O)N3CCN(C(=O)c4ccccc4)CC3)c[nH]c12 [IVa, N-(benzoyl)-N′-[(4,7-dimethoxy-6-azaindol-3-yl)-oxoacetyl]piperazine]
[1]; 200 mg
  AUC of the solution relative to the capsule: ~3 fold
  Cmax of the solution relative to the capsule: approximately 8 fold
[1]; 800 mg
  relative bioavailability (fed vs. fasted): 293%
[1]; 800 mg, Fasting
  AUCtotal: 22 ± 12 µM·h
[1]; 800 mg, Fed
  AUCtotal: 53 ± 10 µM·h
[1]; 1800 mg
  relative bioavailability (fed vs. fasted): 509%
[1]; [7]
  AUC Fed/Fasting Ratio: 4.3
  Cmax Fed/Fasting Ratio: 4.5
[1]; 1800 mg, Fasting
  AUCtotal: 19 ± 5.8 µM·h
[1]; 1800 mg, Fed
  AUCtotal: 82 ± 16 µM·h
[1]; [8]
  ratio of AUC: 1.5
  ratio of Cmax: 1.6
[1]; human, plasma, oral, 200 mg, read-out: relative bioavailability of the capsule to the solution formulation
  bioavailability: 32%
[1]; human, plasma, oral, 800 mg, Fasting
  Cmax: 3.7 ± 1.1 µM
[1]; human, plasma, oral, 800 mg, Fed
  Cmax: 9.8 ± 1.3 µM
[1]; human, plasma, oral, 1800 mg, Fasting
  Cmax: 3.3 ± 0.84 µM
[1]; human, plasma, oral, 1800 mg, Fed
  Cmax: 15 ± 5 µM
[1]; human, plasma, oral, 800 mg capsule with food, 8 hours post dose
  concentration at 8 h: 1000 ng/mL
[1]; human, plasma, oral, 800 mg capsule with food, 12 hours post dose
  concentration at 12 h: 218 ng/mL
[1]; human, plasma, oral, fed, read-out: median Tmax
  Tmax: 4 h
[2]; [9]
  Cp @ 24 hr p.o. (nM): Not detected
  AUC: 4 ± 1 µM·h
  Cmax: 1.12 ± 0.27 µM
  Tmax: 2.7 ± 1.2 h
  bioavailability: 33%
  half-life: 1.3 ± 0.26 h
[2]; IVa following PO dosing of monoester II′a, n = 2/3
  Cp @ 24 hr p.o. (nM): 3.61 (n = 2/3) nM
[2]; [10]
  AUC: 5.9 ± 2.2 µM·h
  Cmax: 1.59 ± 0.615 µM
  Tmax: 2 ± 1.7 h
  bioavailability: 44%
  half-life: 2.8 ± 1.6 h

## COc1cnc(-n2cnc(C)n2)c2[nH]cc(C(=O)C(=O)N3CCN(C(=O)c4ccccc4)CC3)c12 [IVc]
[3]; rats PO 15 mg/kg (soln), 80/10/10 PEG-400/Ethanol/0.1N NaOH
  Cmax: 42 µM
[3]; rats PO 15 mg/kg (soln)
  AUC(0-t): 418 µM·h
[3]; rats PO 75 mg/kg (susp)
  Cmax: 65 µM
  AUC(0-t): 792 µM·h
[3]; rats PO 200 mg/kg (susp)
  Cmax: 76 µM
  AUC(0-t): 1080 µM·h

## COc1cnc(OC)c2c1c(C(=O)C(=O)N1CCN(C(=O)c3ccccc3)CC1)cn2COP(=O)(O)O [Iab, {3-[(4-benzoylpiperazin-1-yl)(oxo)acetyl]-4,7-dimethoxy-1H-pyrrolo[2,3-c]pyridin-1-yl}methyl dihydrogen phosphate, L-lysine salt (1:1)]
[4]
  in-life observations: no noteworthy in-life observations
[5]
  AUC of IVa from the prodrug relative to the clinical form of IVa: 37 times
  Cmax of IVa from the prodrug relative to the clinical form of IVa: 45 times

## O=C(C(=O)N1CCN(C(=O)c2ccccc2)CC1)c1cn(COP(=O)(O)O)c2c(-n3ccnn3)ncc(F)c12 [Ibb, [3-[(4-benzoylpiperazin-1-yl)(oxo)acetyl]-4-fluoro-7-(1H-1,2,3-triazol-1-yl)-1H-pyrrolo[2,3-c]pyridin-1-yl]methyl dihydrogen phosphate, L-lysine salt (1:1)]
pKa
  pKa: 6.1

## COc1cnc(-n2cnc(C)n2)c2c1c(C(=O)C(=O)N1CCN(C(=O)c3ccccc3)CC1)cn2COP(=O)(O)O [Icb, [3-[(4-benzoylpiperazin-1-yl)(oxo)acetyl]-4-methoxy-7-(3-methyl-1H-1,2,4-triazol-1-yl)-1H-pyrrolo[2,3-c]pyridin-1-yl]methyl dihydrogen phosphate, 2-amino-2-(hydroxymethyl)propane-1,3-diol salt (1:1)]
[6]; 0 min, 10 μM
  Icb: 11 µM
[6]; 15 min
  Icb: 11 µM
[6]; 30 min
  Icb: 11 µM
[6]; 45 min, 10 μM
  Icb: 11 µM
[6]; 60 min, 10 μM
  Icb: 10 µM
[6]; 90 min, 10 μM
  Icb: 11 µM
[6]; 90 min
  stability / conversion of prodrug to parent in Tris-HCl buffer: less than 2%
